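Values below derive from 48-hour exposures of cells grown in 96-well plates, with endpoints linearly interpolated between the two concentrations bracketing the appropriate inhibition level. The concentration for full growth arrest is given as TGI.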 A value given as a limit tells only on which side of the number the result lay.

One assay relates to SK-MEL-2 melanoma. Kind of assay: inhibition of tumour cell growth, NCI panel, 48 h.
In turn, `Cn1c(=S)[nH]c2sc3c(c2c1=O)CCSC3` displayed a TGI above 100 µM.

In turn, `O=C(/C=C/c1ccccc1)/C=N/N1C(=S)N(c2ccccc2)C(=Nc2ccccc2)C1=Nc1ccccc1` showed a TGI above 100 µM.

For another assay, the system named is SK-MEL-28 melanoma. Kind of assay: inhibition of tumour cell growth, NCI panel, 48 h.
The molecule `CCCCCCCCCCCC(=O)Oc1c(Cl)cc(Cl)c(OC(=O)C(=O)Oc2c(Cl)cc(Cl)c(OC(=O)CCCCCCCCCCC)c2Cl)c1Cl` showed a TGI above 100 µM.

In turn, `CC(NNC(=O)c1ccncc1)c1ccc(F)cc1` (centres undefined) displayed a TGI above 100 µM.

In turn, `O=C(/C=C/c1ccccc1)/C=N/N1C(=S)N(c2ccccc2)C(=Nc2ccccc2)C1=Nc1ccccc1` had a TGI above 100 µM.

Another assay relates to SK-MEL-5 melanoma. Nature of the assay: inhibition of tumour cell growth, NCI panel, 48 h.
Regarding `CCCCCCCCCCCC(=O)Oc1c(Cl)cc(Cl)c(OC(=O)C(=O)Oc2c(Cl)cc(Cl)c(OC(=O)CCCCCCCCCCC)c2Cl)c1Cl`, the TGI is above 100 µM.

For the molecule `CC(NNC(=O)c1ccncc1)c1ccc(F)cc1` (centres undefined), the TGI is above 100 µM.

Take `Cn1c(=S)[nH]c2sc3c(c2c1=O)CCSC3`: the TGI is above 100 µM.

For `O=C(/C=C/c1ccccc1)/C=N/N1C(=S)N(c2ccccc2)C(=Nc2ccccc2)C1=Nc1ccccc1`, the TGI was above 100 µM.

The subject of another assay is SK-OV-3 ovarian. Nature of the assay: inhibition of tumour cell growth, NCI panel, 48 h.
On to `CCCCCCCCCCCC(=O)Oc1c(Cl)cc(Cl)c(OC(=O)C(=O)Oc2c(Cl)cc(Cl)c(OC(=O)CCCCCCCCCCC)c2Cl)c1Cl`, for which the TGI was above 100 µM.

As to `CC(NNC(=O)c1ccncc1)c1ccc(F)cc1` (centres undefined), the TGI is above 100 µM.

In turn, `Cn1c(=S)[nH]c2sc3c(c2c1=O)CCSC3` had a TGI above 100 µM.

`O=C(/C=C/c1ccccc1)/C=N/N1C(=S)N(c2ccccc2)C(=Nc2ccccc2)C1=Nc1ccccc1` gave a TGI above 100 µM.

A further assay has as its system SN12C renal. Nature of the assay: inhibition of tumour cell growth, NCI panel, 48 h.
`CCCCCCCCCCCC(=O)Oc1c(Cl)cc(Cl)c(OC(=O)C(=O)Oc2c(Cl)cc(Cl)c(OC(=O)CCCCCCCCCCC)c2Cl)c1Cl`: the TGI is above 100 µM.

`CC(NNC(=O)c1ccncc1)c1ccc(F)cc1` (centres undefined) came in with a TGI above 100 µM.

For the molecule `Cn1c(=S)[nH]c2sc3c(c2c1=O)CCSC3`, the TGI was above 100 µM.

With `O=C(/C=C/c1ccccc1)/C=N/N1C(=S)N(c2ccccc2)C(=Nc2ccccc2)C1=Nc1ccccc1`, the TGI is above 100 µM.

The test system of another assay is SNB-19 CNS. Nature of the assay: inhibition of tumour cell growth, NCI panel, 48 h.
`CCCCCCCCCCCC(=O)Oc1c(Cl)cc(Cl)c(OC(=O)C(=O)Oc2c(Cl)cc(Cl)c(OC(=O)CCCCCCCCCCC)c2Cl)c1Cl` registered a TGI above 100 µM.

In the case of `CC(NNC(=O)c1ccncc1)c1ccc(F)cc1` (centres undefined), the TGI is above 100 µM.

Molecule `Cn1c(=S)[nH]c2sc3c(c2c1=O)CCSC3` registered a TGI above 100 µM.

`O=C(/C=C/c1ccccc1)/C=N/N1C(=S)N(c2ccccc2)C(=Nc2ccccc2)C1=Nc1ccccc1` registered a TGI above 100 µM.

The test system of a further assay is SNB-75 CNS. Kind of assay: inhibition of tumour cell growth, NCI panel, 48 h.
`CCCCCCCCCCCC(=O)Oc1c(Cl)cc(Cl)c(OC(=O)C(=O)Oc2c(Cl)cc(Cl)c(OC(=O)CCCCCCCCCCC)c2Cl)c1Cl`: the TGI was above 100 µM.

Turning to `CC(NNC(=O)c1ccncc1)c1ccc(F)cc1` (centres undefined), the TGI is above 100 µM.

The molecule `Cn1c(=S)[nH]c2sc3c(c2c1=O)CCSC3` registered a TGI above 100 µM.

The subject of the next assay is SR leukemia. Nature of the assay: inhibition of tumour cell growth, NCI panel, 48 h.
In turn, `CCCCCCCCCCCC(=O)Oc1c(Cl)cc(Cl)c(OC(=O)C(=O)Oc2c(Cl)cc(Cl)c(OC(=O)CCCCCCCCCCC)c2Cl)c1Cl` had a TGI above 100 µM.

As to `O=C(/C=C/c1ccccc1)/C=N/N1C(=S)N(c2ccccc2)C(=Nc2ccccc2)C1=Nc1ccccc1`, the TGI was above 100 µM.

A further assay has as its system SW-620 colon. Nature of the assay: inhibition of tumour cell growth, NCI panel, 48 h.
`CCCCCCCCCCCC(=O)Oc1c(Cl)cc(Cl)c(OC(=O)C(=O)Oc2c(Cl)cc(Cl)c(OC(=O)CCCCCCCCCCC)c2Cl)c1Cl`: the TGI is above 100 µM.

In turn, `CC(NNC(=O)c1ccncc1)c1ccc(F)cc1` (centres undefined) registered a TGI above 100 µM.

`Cn1c(=S)[nH]c2sc3c(c2c1=O)CCSC3` returned a TGI above 100 µM.

`O=C(/C=C/c1ccccc1)/C=N/N1C(=S)N(c2ccccc2)C(=Nc2ccccc2)C1=Nc1ccccc1` yielded a TGI above 100 µM.

Another assay deals with T-47D breast. Nature of the assay: inhibition of tumour cell growth, NCI panel, 48 h.
In the case of `CCCCCCCCCCCC(=O)Oc1c(Cl)cc(Cl)c(OC(=O)C(=O)Oc2c(Cl)cc(Cl)c(OC(=O)CCCCCCCCCCC)c2Cl)c1Cl`, the TGI is above 100 µM.

`CC(NNC(=O)c1ccncc1)c1ccc(F)cc1` (centres undefined) returned a TGI above 100 µM.

Take `Cn1c(=S)[nH]c2sc3c(c2c1=O)CCSC3`: the TGI worked out at 90.2 µM.

Turning to `O=C(/C=C/c1ccccc1)/C=N/N1C(=S)N(c2ccccc2)C(=Nc2ccccc2)C1=Nc1ccccc1`, the TGI was above 100 µM.

A further assay concerns TK-10 renal. Nature of the assay: inhibition of tumour cell growth, NCI panel, 48 h.
As for `CCCCCCCCCCCC(=O)Oc1c(Cl)cc(Cl)c(OC(=O)C(=O)Oc2c(Cl)cc(Cl)c(OC(=O)CCCCCCCCCCC)c2Cl)c1Cl`, the TGI was above 100 µM.

Molecule `CC(NNC(=O)c1ccncc1)c1ccc(F)cc1` (centres undefined) displayed a TGI above 100 µM.

In turn, `Cn1c(=S)[nH]c2sc3c(c2c1=O)CCSC3` returned a TGI above 100 µM.

With `O=C(/C=C/c1ccccc1)/C=N/N1C(=S)N(c2ccccc2)C(=Nc2ccccc2)C1=Nc1ccccc1`, the TGI is above 100 µM.

The subject of a further assay is U251 CNS. Kind of assay: inhibition of tumour cell growth, NCI panel, 48 h.
Molecule `CCCCCCCCCCCC(=O)Oc1c(Cl)cc(Cl)c(OC(=O)C(=O)Oc2c(Cl)cc(Cl)c(OC(=O)CCCCCCCCCCC)c2Cl)c1Cl` showed a TGI above 100 µM.

`CC(NNC(=O)c1ccncc1)c1ccc(F)cc1` (centres undefined): the TGI is above 100 µM.

`Cn1c(=S)[nH]c2sc3c(c2c1=O)CCSC3` had a TGI above 100 µM.

The molecule `O=C(/C=C/c1ccccc1)/C=N/N1C(=S)N(c2ccccc2)C(=Nc2ccccc2)C1=Nc1ccccc1` returned a TGI above 100 µM.

In a further assay the test system is UACC-257 melanoma. Nature of the assay: inhibition of tumour cell growth, NCI panel, 48 h.
As to `CCCCCCCCCCCC(=O)Oc1c(Cl)cc(Cl)c(OC(=O)C(=O)Oc2c(Cl)cc(Cl)c(OC(=O)CCCCCCCCCCC)c2Cl)c1Cl`, the TGI is above 100 µM.

Turning to `CC(NNC(=O)c1ccncc1)c1ccc(F)cc1` (centres undefined), the TGI is above 100 µM.

Consider `Cn1c(=S)[nH]c2sc3c(c2c1=O)CCSC3`, for which the TGI was above 100 µM.

`O=C(/C=C/c1ccccc1)/C=N/N1C(=S)N(c2ccccc2)C(=Nc2ccccc2)C1=Nc1ccccc1`: the TGI was above 100 µM.

The next assay concerns UACC-62 melanoma. Kind of assay: inhibition of tumour cell growth, NCI panel, 48 h.
`CCCCCCCCCCCC(=O)Oc1c(Cl)cc(Cl)c(OC(=O)C(=O)Oc2c(Cl)cc(Cl)c(OC(=O)CCCCCCCCCCC)c2Cl)c1Cl` showed a TGI above 100 µM.

The molecule `CC(NNC(=O)c1ccncc1)c1ccc(F)cc1` (centres undefined) had a TGI above 100 µM.

`Cn1c(=S)[nH]c2sc3c(c2c1=O)CCSC3` came in with a TGI above 100 µM.

In turn, `O=C(/C=C/c1ccccc1)/C=N/N1C(=S)N(c2ccccc2)C(=Nc2ccccc2)C1=Nc1ccccc1` gave a TGI above 100 µM.

For a further assay, the system named is UO-31 renal. Nature of the assay: inhibition of tumour cell growth, NCI panel, 48 h.
In the case of `CCCCCCCCCCCC(=O)Oc1c(Cl)cc(Cl)c(OC(=O)C(=O)Oc2c(Cl)cc(Cl)c(OC(=O)CCCCCCCCCCC)c2Cl)c1Cl`, the TGI was above 100 µM.

In the case of `CC(NNC(=O)c1ccncc1)c1ccc(F)cc1` (centres undefined), the TGI is above 100 µM.

As for `Cn1c(=S)[nH]c2sc3c(c2c1=O)CCSC3`, the TGI came to 25.8 µM.

As to `O=C(/C=C/c1ccccc1)/C=N/N1C(=S)N(c2ccccc2)C(=Nc2ccccc2)C1=Nc1ccccc1`, the TGI is above 100 µM.
